The numbers were not newly measured in patent US20050136438A1, “Genetic analysis for stratification of cancer risk” (priority 2003, published 2005), which cites them from elsewhere.

Where a name gives a salt, the structure may show the parent alone.

Consider `O=C(c1ccc(OCCN2CCCCC2)cc1)c1c(-c2ccc(O)cc2)sc2cc(O)ccc12` [Raloxifene HCl, methanone, [6-hydroxy-2-(4-hydroxyphenyl)benzo[b]thien-3-yl]-[4-[2-(1-piperidinyl)ethoxy]phenyl]-hydrochloride], for which the “solubility in water” value is reported as “very slightly soluble”.
